Source: US10716305B2, “Anti-bacterial compositions” (priority 2015, dated 2020)
Converted amounts (≈) assume the structure as drawn. Where two headings read alike, the source gives them in different places.

Tests used:
[1] = tested on: MRSA; assay: Comparative efficacy study, oral gavage, MRSA induction IP; type: in vivo, BALB/C mice; conditions: oral treatment for 7 days, Composition A 100 mg/kg, antibiotics per RX dose converted to mice
Protocol: Efficacy Study in comparison to leading anti-MRSA antibiotics was conducted in BALB/C mice.
7a. Administration Route: Oral Gavage
Group 1 (6 mice males)—MRSA Induction IP no treatment
Group 2 (6 mice males)—MRSA Induction IP—oral treatment for 7 days
Group 3 (6 mice males)—No Induction—oral treatment for 7 days
For the antibiotics the dose was as per RX prescription converted to mice Body Weights.
1—Erythromycin 250 mg/pt b.i.d. equals 2.1 mg/20 g mouse/day 300 mg total/12 mice
2—Clindamycin 150 mg/pt b.i.d. equals 1.25 mg/20 g mouse/day 200 mg total/12 mice
3—Vancomycine 250 mg/pt b.i.d. equals 2.1 mg/20 g mouse/day 300 mg total/12 mice

[2] = tested on: BALB/C 3T3 mouse fibroblast cell line; assay: 3T3 Neutral Red Uptake Phototoxicity Assay; type: cell-based; conditions: for EC50: Mus musculus
Protocol: The cytotoxicity and phototoxicity of the test composition to 3T3 cells (in the presence or absence of UVA light) was assessed by Neutral Red Uptake. The 3T3 Neutral Red Uptake Phototoxicity Assay (3T3 NRU PT), based on the OECD Guideline for Testing of Chemicals: […] An Ultraviolet-Visible light (UV-VIS) spectral scan was performed on a solution containing 0.1% of the test composition in a solution of 1% DMSO/HBSS. […] For both the range-finding screen and the definitive test of the 3T3 assay, BALB/C 3T3 cells were seeded in the central 60 wells of duplicate 96-well microplates and maintained in culture for approximately 24 hours. The two 96-well plates were then preincubated with eight different concentrations of the test composition for approximately one hour. After preincubation, one plate was irradiated with a dose of 5 J/cm^2 Solar Simulated Light (SSL, containing wavelengths in the UVA and visible regions with >99% of UVB blocked out), while the duplicate plate was kept in the dark (No SSL). After UV irradiation, the treatment medium was replaced with culture medium and, after approximately 24 hours, cell viability was determined by neutral red uptake for three hours. A range finding screen was performed to determine the acceptable concentrations for the definitive test. MS Excel® was used to calculate the EC50 values and Photo-Irritant Factor (PIF) for the test article and the Chlorpromazine (CPZ) positive control in both the Screen and the Definitive test.

[3] = tested on: bovine corneas; assay: OECD Bovine Corneal Opacity and Permeability Test (BCOP); conditions: 0.75 ml, 10-minute exposure
Protocol: This protocol is based on the methodology described in the current OECD Guideline for the Testing of Chemicals #437.
Following a 10-minute exposure for each group of dosed corneas, opacity measurements and sodium fluorescein permeability were determined.

[4] = tested on: MatTek EpiDerm tissue (Reconstructed Human Epidermis); assay: MatTek EpiDerm Skin Irritation Test (SIT); type: cell-based; conditions: 60 minutes treatment
Protocol: This test was conducted to predict dermal irritation potential of test articles in the context of identification and classification of skin irritation hazard according to the European Union (EU) classification ([…] or no label), United Nations Globally Harmonized System of Classification and Labeling of Chemicals (GHS) classification system (Category 2 and non-irritants), and OECD Guideline for the Testing of Chemicals No. 439-In Vitro Skin Irritation: Reconstructed Human Epidermis Test Method. This study was designed based on MatTek protocol in vitro EpiDermTM Skin Irritation Test. MatTek EpiDermTM tissue samples were treated in triplicate with the test composition, Negative Control and Positive Control for 60 minutes. Following treatment and subsequent incubation time, the viability of the tissues was determined using Methyl thiazole tetrazolium (MTT) uptake and reduction. The absorbance of each sample was measured at 540 nm. The viability was then expressed as a percent of control values. If the mean tissue viability was ≤50%, the test material was classified as an irritant; if the mean tissue viability was […].

Structure (SMILES): CN[C@H](CC(C)C)C(=O)N[C@H]1C(=O)N[C@@H](CC(N)=O)C(=O)N[C@H]2C(=O)N[C@H]3C(=O)N[C@H](C(=O)N[C@H](C(=O)O)c4cc(O)cc(O)c4-c4cc3ccc4O)[C@H](O)c3ccc(c(Cl)c3)Oc3cc2cc(c3O[C@@H]2O[C@H](CO)[C@@H](O)[C@H](O)[C@H]2O[C@H]2C[C@](C)(N)[C@H](O)[C@H](C)O2)Oc2ccc(cc2Cl)[C@H]1O [vancomycin, Vancomycin]
- blood cell culture [1]: one colony

Structure (SMILES): CC[C@H]1OC(=O)[C@H](C)[C@@H](O[C@H]2C[C@@](C)(OC)[C@@H](O)[C@H](C)O2)[C@H](C)[C@@H](O[C@@H]2O[C@H](C)C[C@H](N(C)C)[C@H]2O)[C@](C)(O)C[C@@H](C)C(=O)[C@H](C)[C@@H](O)[C@]1(C)O [Erythromycin]
- blood cell culture [1]: two colonies

Structure (SMILES): CN(C)CCCN1c2ccccc2Sc2ccc(Cl)cc21 [CPZ, Chlorpromazine]
- EC50 ([2]; BALB/c3T3, light or radiation study, 5 J/cm^2 Solar Simulated Light, range tested 0.22-3.16 μg/ml, read-out: EC50 + SSL): 0.4 µg/mL
- EC50 ([2]; BALB/c3T3, dark, range tested 6.81-100 μg/ml, read-out: EC50 No SSL): 18.8 µg/mL (≈ 59 µM)
- PIF (Photo-Irritant Factor) ([2]; definitive test): 47.0

Structure (SMILES): CCO [100% Ethanol, Ethanol]
- Corrected Mean Opacity Score [3]: 22.66
- In Vitro Irritation Score (IVIS) [3]: 32.34

Structure (SMILES): CCCCCCCCCCCCOS(=O)(=O)[O-].[Na+] [5% Sodium Dodecyl Sulfate, Sodium Dodecyl Sulfate]
- Irritancy Classification [4]: Irritant (mean tissue viability was ≤50%, the test material was classified as an irritant)
- Mean Tissue Viability ([4]; MTT, percent of control): 3.1%
